Source: patent EP4678638A1, “NEW E3 UBIQUITIN LIGASE LIGAND, PROTEIN DEGRADATION AGENT AND USE THEREOF” (priority 2023, dated 2024)
Like-named read-outs stand apart in the source and are kept apart here.

Key:
IRAK4 = molecular target: T1, IRAK4 (Homo sapiens, UniProt Q9NWZ3); test: Western blot degradation of IRAK4 (hPBMC); assay type: cell-based; conditions: Table D1
T1 construct: evaluate the effects of the compounds of the present disclosure on the expression of target proteins in cells; endogenous in cells; host or cells: hPBMC
T1 sequence (Q9NWZ3 1-460): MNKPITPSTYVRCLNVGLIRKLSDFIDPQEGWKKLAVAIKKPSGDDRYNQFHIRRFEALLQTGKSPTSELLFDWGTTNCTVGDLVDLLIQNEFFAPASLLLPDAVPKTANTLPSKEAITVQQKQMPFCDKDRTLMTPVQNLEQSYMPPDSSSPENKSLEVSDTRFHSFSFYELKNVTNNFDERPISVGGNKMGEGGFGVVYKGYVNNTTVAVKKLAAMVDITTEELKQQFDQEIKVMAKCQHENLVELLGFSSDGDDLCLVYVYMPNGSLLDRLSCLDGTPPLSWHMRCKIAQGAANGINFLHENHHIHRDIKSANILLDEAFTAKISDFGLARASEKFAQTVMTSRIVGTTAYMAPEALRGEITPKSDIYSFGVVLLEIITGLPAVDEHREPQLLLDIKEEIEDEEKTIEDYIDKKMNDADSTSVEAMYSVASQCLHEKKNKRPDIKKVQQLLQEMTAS
Method in brief: (§1)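 Quantification by ImageJ densitometry of Western blot bands: DC50 is the fitted concentration halving band intensity relative to DMSO. Percent remaining uses internal-control normalization, and degradation rate is its complement.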

MGC-803 = test: CCK-8 proliferation, MGC-803 (heads: MGC80-3, MGC803); assay type: cell-based, Human; conditions: Homo sapiens, MGC-803
Protocol: (§2) The tumor cells used herein were cultured in a cell culture medium listed in table A1 at 37°C in an incubator with 5% CO2. Prior to experimentation, all cell lines used were correctly identified by STR profiling, and tested negative for mycoplasma contamination using a mycoplasma detection kit through routine screenings. Table A1. Tumor cells and cell culture medium used in the present disclosure
(§3) IC50 values of the compounds of the present disclosure (including the compounds in Table 1, and compounds of examples) were measured using the Meilun Cell Counting Kit-8 kit from Dalian Meilun Biotech Co., Ltd. Assay details are as follows: tumor cells were seeded in a 96-well plate at a density listed in Table A2. After 24h, 100 µL of the inoculated cells were treated with 0.5µL of the compounds of the present disclosure (including the compounds in Tables 1 and 2, and compounds of examples) at 10 different successively decreasing concentrations (starting at the highest concentration of 10µM; 5-fold serial dilutions). After the cells were treated with the compounds of the present disclosure for a period of time, the cell viability detection reagent was added to the culture medium for cell viability assessment according to the instructions provided with the CCK-8 kit. […] The growth inhibition of the compounds of the present disclosure on cells was plotted by Prism Graphpad software, and the IC50 values of the compounds of the present disclosure were calculated therefrom. […] Seeding protocol and treatment time for tumor cells

[1] = tested on: H1975-1µM Osimertinib cells; test: CCK-8 proliferation, osimertinib-resistant H1975 cells; assay type: cell-based, Human; conditions: Homo sapiens, NCI-H1975; CCK-8; osimertinib-resistant H1975 cells obtained by treating H1975 cells with 1 µM Osimertinib for 3 months; read-out: Inhibitory activity (IC50) on tumor cell proliferation, H1975-1µm Osimertinib
Protocol: as §2, §3

H1975 = test: CCK-8 proliferation, NCI-H1975 (H1975); assay type: cell-based, Human; conditions: Homo sapiens, NCI-H1975; CCK-8; 96 hours; read-out: Inhibitory activity (IC50) on tumor cell proliferation, H1975
Method in brief: (§4)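 Cells seeded, then after 24 h treated with 10 concentrations (top 10 µM, 5-fold serial dilution) for a line-specific time at 37°C, 5% CO2. Viability read by CCK-8; IC50 fitted from growth-inhibition curves.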

EGFR = test: Western blot degradation of EGFR (H1975 Cell); assay type: cell-based, Human; conditions: Table D2
Method in brief: as §1

MM.1S = test: CCK-8 proliferation, MM.1S; assay type: cell-based; conditions: Homo sapiens, MM1.S; Table B10, compounds designed based on the IRAK4 inhibitors; MM.1S cells; read-out: Inhibitory activity (IC50, nM) on tumor cell proliferation, MM.1S
Method in brief: as §4

Jurkat = test: CCK-8 proliferation, Jurkat; assay type: cell-based, Human; conditions: Homo sapiens; Table B10, compounds designed based on the IRAK4 inhibitors; Jurkat cells; read-out: Inhibitory activity (IC50, nM) on tumor cell proliferation, Jurkat
Method in brief: as §4

SR = test: CCK-8 proliferation, SR; assay type: cell-based, Human; conditions: Homo sapiens; Table B10, compounds designed based on the IRAK4 inhibitors; SR cells; read-out: Inhibitory activity (IC50, nM) on tumor cell proliferation, SR
Method in brief: as §4

SW620 = test: CCK-8 proliferation, SW620; assay type: cell-based; conditions: Homo sapiens, SW-620; CCK-8; 96 hours; read-out: Inhibitory activity (IC50) on tumor cell proliferation, SW620
Protocol: as §2, §3

[2] = Table B10, compounds designed based on the IRAK4 inhibitors, MGC803 cells, read-out: Inhibitory activity (IC50, nM) on tumor cell proliferation, MGC803

Row | IC50 [1] [µM] | IC50 (H1975) [µM] | Structure (SMILES) | IC50 (MGC-803; [2]) [nM] | Degradation of substrate protein EGFR (substrate protein remaining %) (EGFR) | also measured
1 | – | – | COc1cc2nn(C3CCN(Cc4ccc(C5CCC(=O)NC5=O)c(F)c4)CC3)cc2cc1NC(=O)c1cccc(C(F)(F)F)n1 (stereo not drawn) [GT-04762, N-(2-(1-(4-(2,6-dioxopiperidin-3-yl)-3-fluorobenzyl)piperidin-4-yl)-6-methoxy-2H-indazol-5-yl)-6-(trifluoromethyl)picolinamide] | 500 to 1000 | – | Degradation of substrate protein IRAK4 (substrate protein remaining %) (IRAK4): A (A is defined as 0% ≤ substrate protein remaining % ≤ 80%)
2 | 0.05 to 0.1 | 0.01 to 0.05 | O=C1CCC(Nc2cccc(CN3CCN(C4CCN(c5ccc(-c6cc(F)c7c(c6)C(=O)N(C(C(=O)Nc6nccs6)c6ncn8c6CCC8)C7)cc5)CC4)CC3)c2)C(=O)N1 (stereo not drawn) [GT-06247, 2-(6,7-dihydro-5H-pyrrolo[1,2-c]imidazol-1-yl)-2-(6-(4-(4-(4-(3-((2,6-dioxopiperidin-3-yl)amino)benzyl)piperazin-1-yl)piperidin-1-yl)phenyl)-4-fluoro-1-oxoisoindolin-2-yl)-N-(thiazol-2-yl)acetamide] | – | A (A is defined as 0% ≤ substrate protein remaining % ≤ 80%) | –
3 | 0.1 to 0.5 | – | CC(C)n1nc(N2CCC(N3CCN(Cc4ccc(C5CCC(=O)NC5=O)cc4)CC3)CC2)c2cnc(Nc3ccnc(-c4cnn(S(=O)(=O)C5CC5)c4)n3)cc21 (stereo not drawn) [GT-06078, 3-(4-((4-(1-(6-((2-(1-(cyclopropylsulfonyl)-1H-pyrazol-4-yl)pyrimidin-4-yl)amino)-1-isopropyl-1H-pyrazolo[4,3-c]pyridin-3-yl)piperidin-4-yl)piperazin-1-yl)methyl)phenyl)piperidine-2,6-dione] | – | A (A is defined as 0% ≤ substrate protein remaining % ≤ 80%) | –
4 | – | – | O=C1CCN(c2ccc(CN3CCC(N4CCN(c5ccc6c(c5)nc(NC(=O)c5cccc(C(F)(F)F)c5)n6[C@H]5CC[C@@H](CO)CC5)CC4)CC3)cc2)C(=O)N1 [GT-05021, N-(5-(4-(1-(4-(2,4-dioxotetrahydropyrimidin-1(2H)-yl)benzyl)piperidin-4-yl)piperazin-1-yl)-1-((1s,4s)-4-(hydroxymethyl)cyclohexyl) -1H-benzo[d]imidazol-2-yl)-3-(trifluoromethyl)benzamide] | 500 to 1000 | – | IC50 (MM.1S): 500 to 1000 nM; IC50 (Jurkat): 500 to 1000 nM
5 | – | – | O=C1CCN(c2ccc(CN3CCC(N4CCN(c5ccc6c(c5)nc(NC(=O)c5cccc(C(F)(F)F)c5)n6[C@H]5CC[C@@H](CO)CC5)CC4)CC3)nc2)C(=O)N1 [GT-05024, N-(5-(4-(1-((5-(2,4-dioxotetrahydropyrimidin-1(2H)-yl)pyridin-2-yl)methyl)piperidin-4-yl)piperazin-1-yl)-1-((1s,4s)-4-(hydroxymethyl)cyclohexyl) -1H-benzo[d]imidazol-2-yl)-3-(trifluoromethyl)benzamide] | 500 to 1000 | – | IC50 (SR): 500 to 1000 nM; IC50 (MM.1S): 500 to 1000 nM; IC50 (Jurkat): 500 to 1000 nM
6 | 0.5 to 1 | 0.001 to 0.01 | CN(Cc1cccc(NC2CCC(=O)NC2=O)c1)C1CCN(c2ccc(-c3cc(F)c4c(c3)C(=O)N(C(C(=O)Nc3nccs3)c3ncn5c3CCC5)C4)cc2)CC1 (stereo not drawn) [GT-05284, 2-(6,7-dihydro-5H-pyrrolo[1,2-c]imidazol-1-yl)-2-(6-(4-(4-((3-((2,6-dioxopiperidin-3-yl)amino)benzyl)(methyl)amino)piperidin-1-yl)phenyl)-4-fluoro-1-oxoisoindolin-2-yl)-N-(thiazol-2-yl)acetamide] | – | A (A is defined as 0% ≤ substrate protein remaining % ≤ 80%) | –
7 | – | – | O=C1CCN(c2cccc(CN3CCC(N4CCN(c5ccc6c(c5)nc(NC(=O)c5cccc(C(F)(F)F)c5)n6[C@H]5CC[C@@H](CO)CC5)CC4)CC3)c2)C(=O)N1 [GT-05022, N-(5-(4-(1-(3-(2,4-dioxotetrahydropyrimidin-1(2H)-yl)benzyl)piperidin-4-yl)piperazin-1-yl)-1-((1s,4s)-4-(hydroxymethyl)cyclohexyl) -1H-benzo[d]imidazol-2-yl)-3-(trifluoromethyl)benzamide] | 500 to 1000 | – | Degradation of substrate protein IRAK4 (substrate protein remaining %) (IRAK4): A (A is defined as 0% ≤ substrate protein remaining % ≤ 80%); IC50 (SR): 500 to 1000 nM; IC50 (MM.1S): 500 to 1000 nM; IC50 (Jurkat): 500 to 1000 nM
8 | 0.5 to 1 | 0.001 to 0.01 | O=C1CCN(c2ccc(CN3CCN(C4CCN(c5ccc(-c6cc(F)c7c(c6)C(=O)N(C(C(=O)Nc6nccs6)c6ncn8c6CCC8)C7)cc5)CC4(F)F)CC3)cn2)C(=O)N1 (stereo not drawn) [GT-06320, 2-(6,7-dihydro-5H-pyrrolo[1,2-c]imidazol-1-yl)-2-(6-(4-(4-(4-((6-(2,4-dioxotetrahydropyrimidin-1(2H)-yl)pyridin-3-yl)methyl)piperazin-1-yl)-3,3-difluoropiperidin-1-yl)phenyl)-4-fluoro-1-oxoisoindolin-2-yl)-N-(thiazol-2-yl)acetamide] | – | A (A is defined as 0% ≤ substrate protein remaining % ≤ 80%) | –
9 | – | – | CCC(=C(c1ccc(O)cc1)c1ccc(N2CCN(Cc3ccc(C4CCC(=O)NC4=O)c(F)c3)CC2)cc1)c1ccc(O)cc1 (stereo not drawn) [GT-04150, 3-(4-((4-(4-(1,2-bis(4-hydroxyphenyl)but-1-en-1-yl)phenyl)piperazin-1-yl)methyl)-2-fluorophenyl)piperidine-2,6-dione] | – | – | IC50 (MGC-803; CCK-8, 72 hours, read-out: Inhibitory activity (IC50) on tumor cell proliferation, MGC80-3): > 10000 nM; IC50 (SW620): < 0.001 µM
10 | 0.001 to 0.01 | – | COC1CCN(c2nccc(Nc3cc4c(cn3)c(N3CCN(Cc5ccc(N6CCC(=O)NC6=O)cc5)CC3)nn4C(C)C)n2)CC1 [GT-06037, 1-(4-((4-(1-isopropyl-6-((2-(4-methoxypiperidin-1-yl)pyrimidin-4-yl)amino)-1H-pyrazolo[4,3-c]pyridin-3-yl)piperazin-1-yl)methyl)phenyl)dihydropyr imidine-2,4(1H,3H)-dione] | – | – | –
11 | < 0.001 | 0.001 to 0.01 | O=C1CCC(Nc2cccc(CN3CCN(c4ccc(-c5cc(F)c6c(c5)C(=O)N(C(C(=O)Nc5nccs5)c5ncn7c5CCC7)C6)cc4)CC3)c2)C(=O)N1 (stereo not drawn) [GT-06188, 2-(6,7-dihydro-5H-pyrrolo[1,2-c]imidazol-1-yl)-2-(6-(4-(4-(3-((2,6-dioxopiperidin-3-yl)amino)benzyl)piperazin-1-yl)phenyl)-4-fluoro-1-oxoisoindolin-2-yl)-N-(thiazol-2-yl)acetamide] | – | – | –
12 | 0.1 to 0.5 | 0.001 to 0.01 | O=C1CCN(c2ccc(CN3C[C@H]4C[C@@H]3CN4c3ccc(-c4cc(F)c5c(c4)C(=O)N(C(C(=O)Nc4nccs4)c4ncn6c4CCC6)C5)cc3)nc2)C(=O)N1 (stereo partly drawn) [GT-06190, 2-(6,7-dihydro-5H-pyrrolo[1,2-c]imidazol-1-yl)-2-(6-(4-((1R,4R)-5-((5-(2,4-dioxotetrahydropyrimidin-1(2H)-yl)pyridin-2-yl)methyl)-2,5-diazabicyclo[2.2.1]heptan-2-yl)phenyl)-4-fluoro-1-oxoisoindolin-2-yl)-N-(thiazol-2-yl)acetamide] | – | A (A is defined as 0% ≤ substrate protein remaining % ≤ 80%) | –
